In paper PMC11173104, “Synthesis and Antioxidant Activity of N-Benzyl-2-[4-(aryl)-1H-1,2,3-triazol-1-yl]ethan-1-imine Oxides” (International Journal of Molecular Sciences, 2024):

How the values were obtained:
[1] = Competition with DMSO for hydroxyl radicals; settings: 100 µM; Fe3+/ascorbic acid, 37 °C, 30 min
Experimental: Hydroxyl (^•OH) free radical is counted as the most toxic. As a result, it reacts with important biological molecules such as DNA, lipids, or carbohydrates. We found it interesting to test the scavenging activity of the compounds in competition with DMSO.
The hydroxyl radicals were produced by the Fe^3+/ascorbic acid system and detected by the determination of the formaldehyde produced from the oxidation of DMSO. EDTA (0.1 mM), Fe^3+ (167 μM), DMSO (33 mM) in phosphate buffer (50 mM, pH 7.4), the tested compounds (100 µM) and ascorbic acid (10 mM) were inserted, mixed, and incubated in test tubes at 37 °C for 30 min. The reaction was stopped by CCl3COOH (17% w/v) and the % scavenging activity of the nitrones for hydroxyl radicals was recorded. Trolox was used as a positive control (Table 1).

[2] = ABTS•+ decolorization assay in ethanolic solution; settings: 100 µM; 734 nm, 1 min
Experimental: ABTS^•+ was produced according to the described procedure as follows. An ABTS stock solution in water (7 mM) was mixed with potassium persulfate (2.45 mM) and left in a dark at room temperature for 12–16 h before use. A total of 10 µL of the investigated compounds were added to ethanol together with the cationic radical. The results were taken at 734 nm, after 1 min of the mixing procedure. Trolox was used as a positive standard (Table 1).

[3] = Reducing activity (RA): interaction with the stable free radical DPPH; settings: 100 µM
Experimental: DPPH is a stable free radical, advantageous for testing compounds in an ethanolic solution, which in its oxidized form presents a maximum absorbance at about 517 nm. The DPPH method is independent of the molecule’s polarity. […] Nitrones 10b, 10c, and 10d highly interact with DPPH (64.5–81%) after 20 min, whereas 10a presents a lower value. In general, the insertion of a substituent increases the reducing activity (RA). […] It seems that an acceptor, such as a fluorine atom, with small molar refractivity (MR) in the para position offers antioxidant ability. […] RA is not influenced by lipophilicity within this nitrones group. The interaction values are increased for all after 60 min (78–81%), showing time dependency. For the sake of comparison, NDGA was used as a standard reference compound.
To an ethanolic solution of DPPH (0.05 mM) in absolute ethanol, 10 µL from a stock solution (10 mM) in the DMSO of the compounds was added. The mixture was shaken vigorously and allowed to stand for 20 min or 60 min; absorbance at 517 nm was determined spectrophotometrically and the percentage of activity was calculated. All tests were undertaken on three or four replicates and the results were averaged (Table 1). NDGA was used as a reference compound.

soybean LOX = biological target: T1, soybean LOX (Glycine max, UniProt P08170); experiment: Soybean LOX inhibition in vitro (UV absorbance-based); assay type: biochemical; settings: for IC50: Tris pH 9, sodium linoleate
T1 construct: purchased Aldrich Chemical Co., Milwaukee, WI, USA
T1 sequence (P08170 1-839): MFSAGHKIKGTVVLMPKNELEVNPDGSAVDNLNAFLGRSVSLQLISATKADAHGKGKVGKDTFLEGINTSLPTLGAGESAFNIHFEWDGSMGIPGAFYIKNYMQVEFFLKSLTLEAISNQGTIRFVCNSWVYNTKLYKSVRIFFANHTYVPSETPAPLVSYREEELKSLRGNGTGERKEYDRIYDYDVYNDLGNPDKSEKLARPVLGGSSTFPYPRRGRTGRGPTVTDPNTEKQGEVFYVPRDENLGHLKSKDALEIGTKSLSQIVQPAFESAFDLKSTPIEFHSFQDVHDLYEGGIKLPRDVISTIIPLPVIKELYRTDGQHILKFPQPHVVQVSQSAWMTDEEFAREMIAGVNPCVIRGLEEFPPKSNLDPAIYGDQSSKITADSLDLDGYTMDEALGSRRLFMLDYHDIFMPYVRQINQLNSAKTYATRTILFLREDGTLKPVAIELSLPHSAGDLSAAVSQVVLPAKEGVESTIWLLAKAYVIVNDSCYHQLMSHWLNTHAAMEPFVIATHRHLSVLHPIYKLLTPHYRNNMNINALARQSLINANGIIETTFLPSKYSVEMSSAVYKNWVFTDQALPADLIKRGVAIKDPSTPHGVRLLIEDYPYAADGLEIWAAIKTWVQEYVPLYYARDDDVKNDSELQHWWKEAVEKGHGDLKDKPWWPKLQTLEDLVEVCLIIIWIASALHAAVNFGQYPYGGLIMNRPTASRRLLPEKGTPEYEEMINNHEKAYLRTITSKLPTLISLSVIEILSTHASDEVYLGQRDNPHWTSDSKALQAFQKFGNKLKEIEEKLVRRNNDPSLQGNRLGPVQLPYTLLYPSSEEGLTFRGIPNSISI
Source text: The appropriate stimulation of neutrophils cleaves arachidonic acid (AA) from membrane phospholipids, producing leukotrienes through lipoxygenase. Leukotriene B4 (LTB4) is a potent mediator of inflammation, considered to be important in the pathogenesis of neutrophil-mediated inflammatory diseases with a marked relation to the severity of cardiovascular diseases, stroke, and cancer. The enzyme lipoxygenase catalyzes the first two steps in the metabolism of AA, which is cleaved from membrane phospholipids to leukotrienes (LTB4). LTB4 generation is important in the pathogenesis of neutrophil-mediated inflammatory diseases.
The tested compounds dissolved in DMSO were incubated at rt with sodium linoleate (0.1 mL) and 0.2 mL of the enzyme solution (1/9 × 10^−4 w/v in saline) in buffer Tris pH 9.

[4] = Inhibition of AAPH-induced linoleic acid lipid peroxidation (ILP); settings: 100 µM, 37 °C, pH 7.4
Source text: In our studies, the water-soluble azo AAPH was used as a thermal free radical initiator to induce the oxidative changes of linoleic acid to conjugated diene hydroperoxide. All nitrones except for 10c presented inhibition values (75–87%) lower than the common standard Trolox (93%) (Table 1). […] Lipophilicity seems to play a significant role related to a positive result since the inserted methyl group in compound 10b (75%) increases the lipophilicity of compound 10d driving it to higher inhibition (87%).
Ten microliters of the 16 mM linoleic acid sodium salt solution were added to the UV cuvette containing 0.93 mL of the 0.05 M phosphate buffer, pH 7.4 prethermostated at 37 °C. The oxidation reaction was initiated at 37 °C under air by the addition of 50 μL of the 40 mM AAPH solution. Oxidation was carried out in the presence of 10 μL of the compounds’ stock 10 mM solution in DMSO, in the assay. Lipid oxidation was measured in the presence of the same level of DMSO. The rate of oxidation at 37 °C was recorded as the absorption values at 234 nm and compared to Trolox (Table 1).

[5] = set-up: method as in PMID 36670898; settings: previous work; cited from earlier work

SMILES | IC50 (soybean LOX) | melting point | inhibition at 100 µM (soybean LOX; at 100 µM) | Scavenging Activity for HO• (%) [1] | ABTS•+ (%) [2] | RA (%) 20 min [3] | RA (%) 60 min [3] | ILP (%) [4] | hydroxyl radical scavenging (%) [5]
Cc1c(C)c2c(c(C)c1O)CCC(C)(C(=O)O)O2 (stereo not drawn) [Trolox, reference compound] | – | – | – | 73% | 91% | – | – | 93% | 88%
CC(Cc1ccc(O)c(O)c1)C(C)Cc1ccc(O)c(O)c1 (stereo not drawn) [NDGA, nordihydroguaiaretic acid, reference compound] | – | – | – | – | – | 88% | 96% | – | –

Further lines, with some results ahead:

IC50 (soybean LOX) | melting point | inhibition at 100 µM (soybean LOX; at 100 µM) | SMILES | Scavenging Activity for HO• (%) [1] | ABTS•+ (%) [2] | RA (%) 20 min [3] | RA (%) 60 min [3] | ILP (%) [4] | hydroxyl radical scavenging (%) [5]
10 µM | 112 to 113 °C | – | [O-][N+](=CCn1cc(-c2ccc(F)cc2F)nn1)Cc1ccccc1 [Nitrone 10c, N-Benzyl-2-[4-(2,4-difluorophenyl)-1H-1,2,3-triazol-1-yl]ethan-1-imine Oxide] | no | 23% | 79/79% | 79/79% | – | –
62.5 µM | 129 to 131 °C | – | [O-][N+](=CCn1cc(-c2ccc(F)cc2)nn1)Cc1ccccc1 [Nitrone 10b, N-Benzyl-2-[4-(4-fluorophenyl)-1H-1,2,3-triazol-1-yl]ethan-1-imine Oxide] | no | 46% | 81/81% | 81/81% | 75% | –
– | 131 to 133 °C | 45% | Cc1cc(-c2cn(CC=[N+]([O-])Cc3ccccc3)nn2)ccc1F [Nitrone 10d, N-Benzyl-2-[4-(4-fluoro-3-methylphenyl)-1H-1,2,3-triazol-1-yl]ethan-1-imine Oxide] | no | 23% | 64.4% | 79.5% | 87% | –
85 µM | 134 to 136 °C | – | [O-][N+](=CCn1cc(-c2ccccc2)nn1)Cc1ccccc1 [Nitrone 10a, N-Benzyl-2-(4-phenyl-1H-1,2,3-triazol-1-yl)ethan-1-imine Oxide] | no | 8% | 57% | 78% | 81% | –
